The values below come from patent publication US3997518A, “2-Alkyl-4-carboxyalkyl-5-(3,3'-dimethyltriazeno)-imidazoles” (Beecham Group Limited, priority 1970, dated 1976).

For series [1], the system named is R1 lymphoma. Description: Activity against R1 lymphoma, increase in survival time (Table A). In kind it is in vivo, mice. The conditions noted are these: Mus musculus, ip; Table A strain; 32 mg/kg i.p. daily day 3 to day 7; dose of maximum increase; read-out: Medium % increase in survival time. As to the method:
(§1) The R1 lymphoma is normally sensitive to anti-metabolites. Typically mice having a transplant of 1.5 × 10^6 tumour cells die from the metastisizing tumour on day 9, 10 or 11 after transplant.
(§2) The compounds illustrated below were dosed by the intra peritoneal route in a vehicle of 10% acetone in arachas oil daily from day 3 to day 7 after tumour transplant. The increase in survival time over control was measured.
(§3) The dose reported is that dose which gave the maximum increase in survival time. Lower doses gave less activity and higher doses are toxic.
(§4) The results are split into two sections (in Table A and Table B) because two slightly different strains of R1 lymphoma were used.

Series [2] deals with R1 lymphoma. Description: Activity against R1 lymphoma, increase in survival time (Table B, slightly different strain). The format is in vivo, mice. The settings on record: Mus musculus, ip, Table B strain; 33 mg/kg i.p. daily day 3 to day 7; dose of maximum increase; read-out: Medium % increase in survival time. As to the method: as §1, §2, §3, §4
The test system of a further series is PC 6 tumour. Description: PC 6 tumour screen. In kind it is in vivo, mice. The source says: The breadth of antitumour spectrum of the compounds of the invention in mice is illustrated by their activity in the ADJ/PC6 plasma cell tumour. This is a solid tumour sensitive to most alkylating agents. Good activity is rarely seen against this tumour and the R1 lymphoma.
The test of example 91 was repeated using the PC 6 tumour screen.

The conditions of series [3]: Skibba et al., Biochemical Pharmacology, 19, 2043 (1970); cited from earlier work.

Turning to `CN(C)N=Nc1[nH]cnc1C(N)=O` [DIC, 4-Carboxamide-5-(3,3-dimethyltriazeno)imidazole, reference compound], the ILS at 32 mg/kg with R1 lymphoma [1] was 300%. In addition, the ILS at 33 mg/kg in the series on R1 lymphoma [2] is 60%. Also, the “Therapeutic Index” value in the series with PC 6 tumour (i.p. dosing) was found to be 33; in the series with PC 6 tumour (oral dosing) it was 24. The degradation in man result in series [3] is recorded as “degraded substantially to AIC”.
